Molecular target: JNK3 (Homo sapiens, UniProt P53779)
Test: JNK3 SPA assay (phosphorylation of GST-c-Jun)
Assay type: biochemical
Settings: GST-c-Jun substrate, [γ-33P] ATP, 30 minutes at room temperature
Experimental: JNK1, JNK2, JNK3-SPA Assay
• 1. Compound is dissolved in DMSO to a convenient concentration and this is diluted in 10% DMSO to a five times concentrate of the desired starting concentration (frequently 1:100). • 2. 10 μl of 500 mM EDTA is added to alternative wells of the Opti-plate row, which will receive kinase reaction plus DMSO. This creates the negative control. • 3. For the JNK2 and JNK3 assay, compounds are prepared in six 2-fold dilutions with water and each concentration is tested in duplicate. For the JNK1 assay compounds are prepared in four 5-fold dilutions with water which are tested in triplicate. Controls are treated identically. • 4. 20 μl per well of each compound concentration is transferred to an Opti-plate, in duplicate. • 5. 30 μl (JNK2/3 SPA) or 50 μl (JNK1 SPA) of substrate solution (25 mM HEPES pH 7.5, 10 mM magnesium acetate with 3.33 µM ATP (JNK2/3) or 2 µM ATP (JNK1), approximately 7.5 kBq [γ-^33P] ATP, GST-c-Jun, in water) is added to each well. • 6. 50 μl (JNK2/3 SPA) or 30 μl (JNK1 SPA) of kinase solution (JNK in 25 mM HEPES pH 7.5, 10 mM Mg Acetate) is added to each well.
• 7. The plate is incubated for 30 minutes at room temperature. • 8. 100 μl of bead/stop solution is added to each well (5 mg/ml glutathione-PVT-SPA beads, 40 mM ATP in PBS). • 9. Plates are sealed and incubated for 30 minutes at room temperature, centrifuged for 10 minutes at 2500 g and counted. • 10. The IC50 values are calculated as the concentration of the compound being tested at which the phosphorylation of c-Jun is decreased to 50% of the control value.

Chain of JNK3 (P53779 whole entry): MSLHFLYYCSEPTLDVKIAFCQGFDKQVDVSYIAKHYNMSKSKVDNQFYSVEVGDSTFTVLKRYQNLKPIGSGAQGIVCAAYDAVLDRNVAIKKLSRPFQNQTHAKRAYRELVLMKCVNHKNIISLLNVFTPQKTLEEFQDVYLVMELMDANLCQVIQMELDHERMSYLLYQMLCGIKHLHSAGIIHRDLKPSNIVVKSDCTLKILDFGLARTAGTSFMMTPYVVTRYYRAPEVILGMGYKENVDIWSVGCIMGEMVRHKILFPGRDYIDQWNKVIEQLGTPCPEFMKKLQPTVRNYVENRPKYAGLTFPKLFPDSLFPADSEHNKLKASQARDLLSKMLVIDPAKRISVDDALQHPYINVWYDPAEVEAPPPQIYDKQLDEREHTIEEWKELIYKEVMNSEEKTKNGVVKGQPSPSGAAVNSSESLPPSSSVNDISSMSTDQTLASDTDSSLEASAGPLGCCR

SMILES	IC50
Oc1cnc2[nH]cc(-c3cn[nH]c3)c2c1	< 2000 nM
CCCCCCCc1cnc2[nH]cc(-c3cnn(C)c3)c2c1	< 100 nM
CN(C)C1CCC(Cc2cnc3[nH]cc(-c4cnn(C)c4)c3c2)CC1 (centres unmarked)	< 200 nM
Nc1cnc2[nH]cc(-c3cn[nH]c3)c2c1	< 500 nM
Cn1cc(-c2c[nH]c3ncc(Oc4ccccc4)cc23)cn1	< 500 nM
CC(C)Cc1cnc2[nH]cc(-c3csc(C4CCN(C)CC4)n3)c2c1	< 1000 nM
CCCCCc1cnc2[nH]cc(-c3csc(C(=O)N4CCCCC4)n3)c2c1	< 200 nM
CCCCCCCCc1cnc2[nH]cc(-c3cnn(C)c3)c2c1	< 100 nM
Cc1cccc(Oc2cnc3[nH]cc(-c4cnn(C)c4)c3c2)c1	< 1000 nM
Cn1cc(-c2c[nH]c3ncc(OCC4CC4)cc23)cn1	< 500 nM
Cn1cc(-c2c[nH]c3ncc(OCC4CCCCC4)cc23)cn1	< 500 nM
COc1cnc2[nH]cc(-c3cn[nH]c3)c2c1	< 1000 nM
CCCCOc1cnc2[nH]cc(-c3cnn(C)c3)c2c1	< 500 nM
Cn1cc(-c2c[nH]c3ncc(CCCCO)cc23)cn1	< 1000 nM
Cn1cc(-c2c[nH]c3ncc(Cn4ccc5ccccc54)cc23)cn1	< 500 nM
Cn1cc(-c2c[nH]c3ncc(CCC(C)(C)C)cc23)cn1	< 500 nM
CC(C)Cc1cnc2[nH]cc(-c3cnn(CCN4CCOCC4)c3)c2c1	< 500 nM
Cn1cc(-c2c[nH]c3ncc(CC4=CCCCC4)cc23)cn1	< 200 nM
CCCOc1cnc2[nH]cc(-c3cnn(C)c3)c2c1	< 500 nM
CCOC(=O)COc1cnc2[nH]cc(-c3cnn(C)c3)c2c1	< 2000 nM
Cn1cc(-c2c[nH]c3ncc(CC4CCCC4)cc23)cn1	< 100 nM
CN1CCN(C2CCC(Cc3cnc4[nH]cc(-c5cnn(C)c5)c4c3)CC2)CC1 (centres unmarked)	< 200 nM

SMILES	IC50
CCCCCOc1cnc2[nH]cc(-c3cnn(C)c3)c2c1	< 200 nM
Cn1cc(-c2c[nH]c3ncc(Oc4ccc(F)cc4)cc23)cn1	< 1000 nM
Cn1cc(-c2c[nH]c3ncc(CC4CCN(Cc5ccccc5)CC4)cc23)cn1	< 200 nM
C=CCOc1cnc2[nH]cc(-c3cnn(C)c3)c2c1	< 500 nM
CC(C)(C)OC(=O)Nc1cnc2[nH]cc(-c3cn[nH]c3)c2c1	< 1000 nM
CN(C)c1ccc(Oc2cnc3[nH]cc(-c4cnn(C)c4)c3c2)cc1	< 500 nM
CCCCCc1cnc2[nH]cc(-c3cnn(C)c3)c2c1	< 200 nM
Cn1cc(-c2c[nH]c3ncc(CC4CCC(O)CC4)cc23)cn1 (centres unmarked)	< 100 nM
O=C(O)c1ccccc1C(=O)Nc1cnc2[nH]cc(-c3cncs3)c2c1	< 200 nM
CCCCCc1cnc2[nH]cc(-c3csc(C(=O)N4CCN(C)CC4)n3)c2c1	< 200 nM
CC(C)Cc1cnc2[nH]cc(-c3csc(C(=O)N4CCOCC4)n3)c2c1	< 200 nM
Cn1cc(-c2c[nH]c3ncc(CC4CCC4)cc23)cn1	< 100 nM
CC(C)Cc1cnc2[nH]cc(-c3cnn(C)c3)c2c1	< 100 nM
Cn1cc(-c2c[nH]c3ncc(CC4CCCCC4)cc23)cn1	< 100 nM
Cc1ccc(Oc2cnc3[nH]cc(-c4cnn(C)c4)c3c2)cc1	< 500 nM
CCCCCc1cnc2[nH]cc(-c3csc(C(=O)N4CCOCC4)n3)c2c1	< 500 nM
Cn1cc(-c2c[nH]c3ncc(CCC4CCCCC4)cc23)cn1	< 200 nM
CCCCS(=O)(=O)c1cnc2[nH]cc(-c3cn[nH]c3)c2c1	< 1000 nM
CCCC[S+]([O-])c1cnc2[nH]cc(-c3cn[nH]c3)c2c1 (centres unmarked)	< 1000 nM
Cn1cc(-c2c[nH]c3ncc(CC4=CCCC4)cc23)cn1	< 200 nM
Cn1cc(-c2c[nH]c3ncc(CC4CCC(=O)CC4)cc23)cn1	< 200 nM
Cn1cc(-c2c[nH]c3ncc(CN4CCc5ccccc54)cc23)cn1	< 500 nM

SMILES	IC50
CC(C)CCCc1cnc2[nH]cc(-c3cnn(C)c3)c2c1	< 200 nM
CC(C)Cc1cnc2[nH]cc(-c3csc(C(=O)N4CCCCC4)n3)c2c1	< 200 nM
CN(C)c1cccc(Sc2cnc3[nH]cc(-c4cnn(C)c4)c3c2)c1	< 200 nM
CCCCCCOc1cnc2[nH]cc(-c3cnn(C)c3)c2c1	< 500 nM
COCCOc1cnc2[nH]cc(-c3cnn(C)c3)c2c1	< 2000 nM
CCCCCc1cnc2[nH]cc(-c3csc(C(=O)N(C)C)n3)c2c1	< 500 nM
Cn1cc(-c2c[nH]c3ncc(OC4CCCC4)cc23)cn1	< 200 nM
Cn1cc(-c2c[nH]c3ncc(OCCc4ccccc4)cc23)cn1	< 500 nM
CCCc1cnc2[nH]cc(-c3cnn(C)c3)c2c1	< 100 nM
Cn1cc(-c2c[nH]c3ncc(OCc4ccccc4)cc23)cn1	< 500 nM
C#CCOc1cnc2[nH]cc(-c3cnn(C)c3)c2c1	< 500 nM
Cn1cc(-c2c[nH]c3ncc(Cc4ccccc4)cc23)cn1	< 200 nM
CCCCSc1cnc2[nH]cc(-c3cnn(C)c3)c2c1	< 100 nM
CC(C)Cc1cnc2[nH]cc(-c3csc(C(=O)N4CCN(C)CC4)n3)c2c1	< 100 nM
c1ccc(Sc2cnc3[nH]cc(-c4cn[nH]c4)c3c2)cc1	< 200 nM
Cn1cc(-c2c[nH]c3ncc(CN4CCCCC4)cc23)cn1	< 1000 nM
[O-][S+](c1ccccc1)c1cnc2[nH]cc(-c3cn[nH]c3)c2c1 (centres unmarked)	< 500 nM
Cn1cc(-c2c[nH]c3ncc(CC4CCC(N5CCOCC5)CC4)cc23)cn1 (centres unmarked)	< 200 nM
O=C(Nc1cnc2[nH]cc(-c3ccoc3)c2c1)c1ccc(F)cc1	< 500 nM
Cc1ccccc1Oc1cnc2[nH]cc(-c3cnn(C)c3)c2c1	< 500 nM
CCOc1cnc2[nH]cc(-c3cnn(C)c3)c2c1	< 500 nM
